The results in this text go back to patent publication US20230203060A1 (GENFLEET THERAPEUTICS (SHANGHAI) INC., priority 2020, published 2023).

SMILES strings stand for the structures.

The term IC50 denotes the concentration needed to halve the response being measured.

Assay [1] deals with KRAS G12C mutant MIA PaCa-2 cells. As to the kind of experiment: Cell proliferation inhibition experiment, 3D spheroid, CellTiter-Glo, MIA PaCa-2. Format: cell-based, human. Particulars: Homo sapiens, MIA PaCa-2, 120 h, 3D cell model in 384-well spheroid plate, 5 days, CellTiter-Glo; read-out: MIA-PaCa2 IC50. In a few lines:
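200 MIA PaCa-2 cells/well grown overnight as 3D spheroids, then exposed to 3.16-fold compound dilutions (0.1% DMSO final) for 5 days. Viability read by CellTiter-Glo luminescence; inhibition calculated against DMSO and medium-only controls, and IC50 fitted by four-parameter model.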

The target of assay [2] is T1, KRAS G12C (Homo sapiens, UniProt P01116, G12C).
T1 construct: purchased Reactionbiology
T1 sequence (P01116 1-188 isoform P01116-2 G12C): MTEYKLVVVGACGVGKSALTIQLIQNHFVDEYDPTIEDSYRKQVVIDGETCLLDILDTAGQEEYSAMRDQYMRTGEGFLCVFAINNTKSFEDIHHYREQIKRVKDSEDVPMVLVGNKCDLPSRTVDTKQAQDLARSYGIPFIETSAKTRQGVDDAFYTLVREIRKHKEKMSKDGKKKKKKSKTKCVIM
As to the kind of experiment: KRAS G12C NEA-HTRF experiment (SOS1-catalyzed displacement of GDP by GTP). Format: biochemical. In a few lines:
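His-tagged KRAS G12C preloaded with DY647-GDP was preincubated 15 min at 20 °C with compound, then exchanged with SOS1 (0.2 μM working solution) and GTP (200 μM working solution) for 2 h at 20 °C in the dark. HTRF 665/615 nm ratio with anti-His-Tb was normalised to T0 and no-compound controls; IC50 by four-parameter fit.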
In general terms: Time-resolved FRET reads energy transfer from a long-lived donor to a nearby acceptor.

For `C=CC(=O)N1CCN2C(=O)c3c(N4Cc5cn(C)nc5C4(C)C)nc(-c4c(O)cccc4F)c(Cl)c3OC[C@H]2C1` [Z310, (6aR)-8-acryloyl-1-(2,6,6-trimethylpyrrolo[3,4-c]pyrazol-5(2H,4H,6H)-yl)-4-chloro-3-(2-fluoro-6-hydroxyphenyl)-6,6a,7,8,9,10-hexahydro-12H-pyrazino[2,1-c]pyrido[3,4-f][1,4]oxazepin-12-one], the figures for the IC50 in assay [1] and in assay [2] were 26 nM and 36 nM, respectively.

For the compound `C=CC(=O)N1CCN2C(=O)c3c(N4CCN(C)C(=O)[C@@H]4C)nc(-c4c(O)cccc4F)c(Cl)c3OC[C@H]2C1` [Z311-1, (6aR)-8-actyloyl-4-chloro-1-((S)-2,4-dimethyl-3-oxopiperazin-1-yl)-3-(2-fluoro-6-hydroxyphenyl)-6,6a,7,8,9,10-hexahydro-12H-pyrazino[2,1-c]pyrido[3,4-f][1,4]oxazepin-12-one], the IC50 in assay [1] came to 12 nM; in assay [2], 34 nM.

Turning to `C=CC(=O)N1CCN2C(=O)c3c(N4CCN(C(C)=O)C[C@@H]4C)nc(-c4c(O)cccc4F)c(Cl)c3OC[C@H]2C1` [Z313-1], the IC50 in assay [1] is 2.6 nM; in assay [2], 13 nM.

With `C=CC(=O)N1CCN2C(=O)c3c(N4CCOCC4)nc(-c4nc(N)cc(C)c4C(F)(F)F)c(Cl)c3OC[C@H]2C1` [Z314], the IC50 in assay [1] is 9.9 nM; in assay [2], 43 nM.

For `C=CC(=O)N1CCN2C(=O)c3c(N4CCN(C(C)=O)C(C)(C)C4)nc(-c4c(O)cccc4F)c(Cl)c3OC[C@H]2C1` [Z315, (6aR)-1-(4-acetyl-3,3-dimethylpiperazin-1-yl)-8-acryloyl-4-chloro-3-(2-fluoro-6-hydroxyphenyl)-6,6a,7,8,9,10-hexahydro-12H-pyrazino[2,1-c]pyrido[3,4-f][1,4]oxazepin-12-one], the values for the IC50 in assay [1] and in assay [2] were 9.6 nM and 33 nM, respectively.

Consider `C=CC(=O)N1CCN2C(=O)c3c(N4CCN(C(=O)CC)C[C@@H]4C)nc(-c4c(O)cccc4F)c(Cl)c3OC[C@H]2C1` [Z316-1, (6aR)-8-acryloyl-4-chloro-3-(2-fluoro-6-hydroxyphenyl)-1-((S)-2-methyl-4-propionylpiperazin-1-yl)-6,6a,7,8,9,10-hexahydro-12H-pyrazino[2,1-c]pyrido[3,4-f][1,4]oxazepin-12-one], for which the IC50 stood at 2.2 nM in assay [1] and 9 nM in assay [2].

For `C=CC(=O)N1CCN2C(=O)c3c(N4CCN(S(C)(=O)=O)C[C@@H]4C)nc(-c4c(O)cccc4F)c(Cl)c3OC[C@H]2C1` [Z318-1, (6aR)-8-acryloyl-1-((S)-2-methyl-4-(methylsulfonyl)piperazin-1-yl)-4-chloro-3-(2-fluoro-6-hydroxyphenyl)-6,6a,7,8,9,10-hexahydro-12H-pyrazino[2,1-c]pyrido[3,4-f][1,4]oxazepin-12-one], the IC50 amounted to 10.9 nM in assay [1] and 37 nM in assay [2].

As for `C=CC(=O)N1CCN2C(=O)c3c(N4CCN(C(=O)C5CC5)C[C@@H]4C)nc(-c4c(O)cccc4F)c(Cl)c3OC[C@H]2C1` [Z320-1, (6aR)-8-acryloyl-4-chloro-1-((S)-4-(cyclopropanecarbonyl)-2-methylpiperazin-1-yl)-3-(2-fluoro-6-hydroxyphenyl)-6,6a,7,8,9,10-hexahydro-12H-pyrazino[2,1-c]pyrido[3,4-f][1,4]oxazepin-12-one], the IC50 in assay [1] came out at 1.7 nM; in assay [2], 9 nM.

Regarding `C=CC(=O)N1CCN2C(=O)c3c(N4CCN(CCOC)C(C)(C)C4)nc(-c4c(O)cccc4F)c(Cl)c3OC[C@H]2C1` [Z321, (6aR)-8-acryloyl-4-chloro-3-(2-fluoro-6-hydroxyphenyl)-1-(4-(2-methoxyethyl)-3,3-dimethylpiperazin-1-yl)-6,6a,7,8,9,10-hexahydro-12H-pyrazino[2,1-c]pyrido[3,4-f][1,4]oxazepin-12-one], the IC50 in assay [1] came out at 7 nM; in assay [2], 78 nM.

With `C=CC(=O)N1CCN2C(=O)c3c(N4CCN(CC)C(C)(C)C4)nc(-c4c(O)cccc4F)c(Cl)c3OC[C@H]2C1` [Z322, (6aR)-8-actyloyl-4-chloro-3-(2-fluoro-6-hydroxyphenyl)-1-(4-ethyl-3,3-dimethylpiperazin-1-yl)-6,6a,7,8,9,10-hexahydro-12H-pyrazino[2,1-c]pyrido[3,4-f][1,4]oxazepin-12-one], the IC50 was found to be 6.3 nM in assay [1] and 62 nM in assay [2].

For the compound `C=CC(=O)N1CCN2C(=O)c3c(N4CC(N(C)C5COC5)CC4(C)C)nc(-c4c(O)cccc4F)c(Cl)c3OC[C@H]2C1` (stereo partly drawn) [Z326, (6aR)-8-acryloyl-4-chloro-1-(2,2-dimethyl-4-(methyl(oxetan-3-yl)amino)pyrrolidin-1-yl)-3-(2-fluoro-6-hydroxyphenyl)-6,6a,7,8,9,10-hexahydro-12H-pyrazino[2,1-c]pyrido[3,4-f][1,4]oxazepin-12-one], the IC50 stood at 0.9 nM in assay [1] and 8 nM in assay [2].

Regarding `C=CC(=O)N1CCN2C(=O)c3c(N4CCN(C)C[C@@H]4C)nc(-c4nc(N)cc(C)c4C(F)(F)F)c(Cl)c3OC[C@H]2C1` [Z328-1, (R)-8-acryloyl-3-(6-amino-4-methyl-3-(trifluoromethyl)pyridin-2-yl)-4-chloro-1-((S)-2,4-dimethylpiperazin-1-yl)-6,6a,7,8,9,10-hexahydro-12H-pyrazino[2,1-c]pyrido[3,4-f][1,4]oxazepin-12-one], the IC50 worked out at 1.7 nM in assay [1] and 15 nM in assay [2].

As to `C=CC(=O)N1CCN2C(=O)c3c(N4CCC(N(C)C)C4(C)C)nc(-c4c(O)cccc4F)c(Cl)c3OC[C@H]2C1` (stereo partly drawn) [Z334, (6aR)-8-acryloyl-4-chloro-1-(3-(dimethylamino)-2,2-dimethylpyrrolidin-1-yl)-3-(2-fluoro-6-hydroxyphenyl)-6,6a,7,8,9,10-hexahydro-12H-pyrazino[2,1-c]pyrido[3,4-f][1,4]oxazepin-12-one], the IC50 in assay [1] was 11 nM; in assay [2], 79 nM.

For `C=CC(=O)N1CCN2C(=O)c3c(N4CC(C#N)CC4(C)C)nc(-c4c(O)cccc4F)c(F)c3OC[C@H]2C1` (stereo partly shown) [Z335], the results for the IC50 in assay [1] and in assay [2] were 18 nM and 78 nM, respectively.

Regarding `C=CC(=O)N1CCN2C(=O)c3c(N4CC[C@@H](OC)[C@@H]4C)nc(-c4c(O)cccc4F)c(Cl)c3OC[C@H]2C1` [Z338-1, (6aR)-8-acryloyl-4-chloro-3-(2-fluoro-6-hydroxyphenyl)-1-((2S,3R)-3-methoxy-2-methylpyrrolidin-1-yl)-6,6a,7,8,9,10-hexahydro-12H-pyrazino[2,1-c]pyrido[3,4-f][1,4]oxazepin-12-one], the figures for the IC50 in assay [1] and in assay [2] were 9 nM and 39 nM, respectively.

For `C=CC(=O)N1CCN2C(=O)c3c(N4CCN(C)C[C@@H]4C)nc(-c4c(F)ccc(Cl)c4O)c(Cl)c3OC[C@H]2C1` [Z342, (6aR)-8-acryloyl-4-chloro-3-(3-chloro-6-fluoro-2-hydroxyphenyl)-1-((S)-2,4-dimethylpiperazin-1-yl)-6,6a,7,8,9,10-hexahydro-12H-pyrazino[2,1-c]pyrido[3,4-f][1,4]oxazepin-12-one], the IC50 in assay [1] turned out to be 16 nM; in assay [2] it was 74 nM.

As to `C=CC(=O)N1CCN2C(=O)c3c(N4CCN(C)C[C@@H]4C)nc(-c4c(O)ccc(Cl)c4F)c(Cl)c3OC[C@H]2C1` [Z343, (6aR)-8-acryloyl-4-chloro-3-(3-chloro-2-fluoro-6-hydroxyphenyl)-1-((S)-2,4-dimethylpiperazin-1-yl)-6,6a,7,8,9,10-hexahydro-12H-pyrazino[2,1-c]pyrido[3,4-f][1,4]oxazepin-12-one], the IC50 in assay [1] turned out to be 18 nM; in assay [2] it was 101 nM.
